The source made the active and inactive calls.
What was measured:
[1] = biological target: 26S proteasome non-ATPase regulatory subunit 14 (Homo sapiens, UniProt O00487); assay: inhibition of proteasome subunit RPN11 – biochemical, fluorescence polarization, uHTS hits, confirmation (AID 602368); format: functional
[2] = biological target: T1, Carboxy-terminal domain RNA polymerase II polypeptide A small phosphatase 1 (Homo sapiens, UniProt Q9GZU7); assay: CTDSP1 inhibitors, concentration-response, biochemical, absorbance readout, ultra-high-throughput screen actives (AID 540297); format: functional
T1 sequence (Q9GZU7 whole entry): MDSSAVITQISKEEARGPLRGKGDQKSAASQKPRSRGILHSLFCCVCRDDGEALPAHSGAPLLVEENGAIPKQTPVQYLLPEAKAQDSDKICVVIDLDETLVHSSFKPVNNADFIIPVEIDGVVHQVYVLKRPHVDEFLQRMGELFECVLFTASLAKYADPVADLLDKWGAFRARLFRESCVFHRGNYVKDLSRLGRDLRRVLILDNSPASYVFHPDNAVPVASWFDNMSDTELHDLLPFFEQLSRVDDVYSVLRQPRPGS

[3] = biological target: 72 kDa type IV collagenase (Homo sapiens, UniProt P08253); assay: Dose Response validation of uHTS RPN11 inhibitor hits using a MMP-2 Fluorescence assay.; format: functional
Chain of 72 kDa type IV collagenase (P08253 whole entry): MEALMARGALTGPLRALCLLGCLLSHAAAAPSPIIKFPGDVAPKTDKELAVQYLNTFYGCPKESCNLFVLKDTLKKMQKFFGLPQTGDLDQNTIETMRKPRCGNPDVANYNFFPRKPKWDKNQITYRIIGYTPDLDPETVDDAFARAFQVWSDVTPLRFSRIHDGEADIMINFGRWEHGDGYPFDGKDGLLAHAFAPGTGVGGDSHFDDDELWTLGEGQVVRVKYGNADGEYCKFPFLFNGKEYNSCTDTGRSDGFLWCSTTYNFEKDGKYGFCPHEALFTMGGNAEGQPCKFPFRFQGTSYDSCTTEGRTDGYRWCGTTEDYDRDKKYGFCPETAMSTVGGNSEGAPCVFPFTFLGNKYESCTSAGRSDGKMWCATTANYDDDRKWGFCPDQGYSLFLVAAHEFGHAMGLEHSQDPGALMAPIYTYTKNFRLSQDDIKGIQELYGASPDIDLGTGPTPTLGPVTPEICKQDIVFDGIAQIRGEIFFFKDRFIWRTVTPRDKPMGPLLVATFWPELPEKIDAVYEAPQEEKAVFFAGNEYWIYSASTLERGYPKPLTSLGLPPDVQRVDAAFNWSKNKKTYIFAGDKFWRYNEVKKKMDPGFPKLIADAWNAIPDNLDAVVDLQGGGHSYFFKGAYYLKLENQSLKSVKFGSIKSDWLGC

[4] = biological target: Prothrombin (Bos taurus, UniProt P00735); assay: thrombin protease inhibitors – biochemical, fluorescence polarization, uHTS hits, dose response (AID 602369); format: functional
[5] = biological target: T2, High affinity choline transporter 1 (Homo sapiens, UniProt Q9GZV3); assay: human choline transporter blockers, potency – cell-based, 10-point CRC, membrane potential dye, dose response (AID 588401); format: functional;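 note: membrane potential dye fluorescence of choline-evoked depolarization via CHT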
T2 sequence (Q9GZV3 whole entry): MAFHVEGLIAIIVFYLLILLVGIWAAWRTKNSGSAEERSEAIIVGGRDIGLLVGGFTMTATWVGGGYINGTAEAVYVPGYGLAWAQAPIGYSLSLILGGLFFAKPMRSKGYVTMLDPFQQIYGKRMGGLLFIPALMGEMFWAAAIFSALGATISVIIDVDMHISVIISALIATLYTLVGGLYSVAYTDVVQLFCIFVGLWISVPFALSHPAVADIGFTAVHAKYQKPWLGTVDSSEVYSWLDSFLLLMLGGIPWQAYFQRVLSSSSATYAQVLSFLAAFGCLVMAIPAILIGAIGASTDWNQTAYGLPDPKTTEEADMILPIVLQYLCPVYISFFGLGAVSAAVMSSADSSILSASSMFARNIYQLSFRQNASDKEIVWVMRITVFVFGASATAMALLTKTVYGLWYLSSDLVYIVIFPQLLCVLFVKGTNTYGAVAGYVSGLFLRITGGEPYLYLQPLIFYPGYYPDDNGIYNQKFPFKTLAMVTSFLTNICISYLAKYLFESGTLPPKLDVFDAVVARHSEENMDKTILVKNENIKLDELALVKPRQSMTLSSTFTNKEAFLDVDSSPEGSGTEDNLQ

[6] = biological target: T2, High affinity choline transporter 1; assay: human choline transporter blockers, potency – cell-based, 5-point CRC, membrane potential dye, dose response (AID 504840); format: functional
[7] = cAMP pathway inhibition in counterscreen cell line – TR-FRET cAMP detection, counter-screen for MC4R biased antagonist project, dose response (AID 602305); format: functional, cell-based;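 note: U2OS cells stimulated with forskolin near its EC80 as the cAMP inducer; potency is for inhibition of forskolin-stimulated cAMP signaling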
[8] = biological target: Melanocortin receptor 4 (Homo sapiens, UniProt P32245); assay: inhibitors of MC4R cAMP signaling – cell-based, TR-FRET, biased antagonists, dose response (AID 602298); format: functional;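 note: antagonist potency against agonist-stimulated cAMP production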
Chain of Melanocortin receptor 4 (P32245 whole entry): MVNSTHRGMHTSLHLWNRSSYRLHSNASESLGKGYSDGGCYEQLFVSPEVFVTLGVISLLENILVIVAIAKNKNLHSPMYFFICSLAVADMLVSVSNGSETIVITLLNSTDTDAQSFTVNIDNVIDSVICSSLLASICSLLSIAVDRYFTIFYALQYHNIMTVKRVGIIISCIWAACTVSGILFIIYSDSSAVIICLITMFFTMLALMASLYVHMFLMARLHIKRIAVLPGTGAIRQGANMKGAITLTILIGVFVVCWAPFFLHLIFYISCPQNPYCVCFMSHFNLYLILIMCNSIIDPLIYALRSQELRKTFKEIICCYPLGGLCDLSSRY

[9] = A cytotoxicity screen of small molecule inhibitors of the PhoP region in Salmonella typhi identified in the primary screen. [Related pubchem assays: 1850, 1864, 1985 ]; format: functional
[10] = biological target: Serine/threonine-protein kinase pim-1 (Homo sapiens, UniProt P11309); format: functional
Chain of Serine/threonine-protein kinase pim-1 (P11309 whole entry): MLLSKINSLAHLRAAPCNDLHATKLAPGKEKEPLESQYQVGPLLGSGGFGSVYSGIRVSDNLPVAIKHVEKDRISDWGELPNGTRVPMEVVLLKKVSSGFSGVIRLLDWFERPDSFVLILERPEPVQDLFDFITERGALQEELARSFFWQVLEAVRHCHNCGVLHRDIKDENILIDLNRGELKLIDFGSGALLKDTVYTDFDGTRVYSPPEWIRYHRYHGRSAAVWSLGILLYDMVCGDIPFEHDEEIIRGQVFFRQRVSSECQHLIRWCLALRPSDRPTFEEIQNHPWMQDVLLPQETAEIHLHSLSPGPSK

[11] = biological target: T3, Interleukin-1 receptor-associated kinase 4 (Homo sapiens, UniProt Q9NWZ3); format: functional
T3 sequence (Q9NWZ3 whole entry): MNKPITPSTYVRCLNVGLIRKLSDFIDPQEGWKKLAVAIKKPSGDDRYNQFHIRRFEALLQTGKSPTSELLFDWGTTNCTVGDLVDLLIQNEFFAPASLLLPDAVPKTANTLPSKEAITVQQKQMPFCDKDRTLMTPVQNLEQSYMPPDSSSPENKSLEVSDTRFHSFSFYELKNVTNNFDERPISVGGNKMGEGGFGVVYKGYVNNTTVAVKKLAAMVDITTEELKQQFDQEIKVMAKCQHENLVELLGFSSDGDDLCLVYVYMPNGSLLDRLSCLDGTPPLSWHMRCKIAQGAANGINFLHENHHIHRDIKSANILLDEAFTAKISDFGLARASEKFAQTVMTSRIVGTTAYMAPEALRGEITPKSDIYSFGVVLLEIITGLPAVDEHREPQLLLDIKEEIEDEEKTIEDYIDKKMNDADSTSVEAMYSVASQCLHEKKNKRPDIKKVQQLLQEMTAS

[12] = biological target: Glycogen synthase kinase-3 beta (Homo sapiens, UniProt P49841); format: functional;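 note: value comes from a broad kinome profiling panel, with GSK3B as the panel member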
Chain of Glycogen synthase kinase-3 beta (P49841 whole entry): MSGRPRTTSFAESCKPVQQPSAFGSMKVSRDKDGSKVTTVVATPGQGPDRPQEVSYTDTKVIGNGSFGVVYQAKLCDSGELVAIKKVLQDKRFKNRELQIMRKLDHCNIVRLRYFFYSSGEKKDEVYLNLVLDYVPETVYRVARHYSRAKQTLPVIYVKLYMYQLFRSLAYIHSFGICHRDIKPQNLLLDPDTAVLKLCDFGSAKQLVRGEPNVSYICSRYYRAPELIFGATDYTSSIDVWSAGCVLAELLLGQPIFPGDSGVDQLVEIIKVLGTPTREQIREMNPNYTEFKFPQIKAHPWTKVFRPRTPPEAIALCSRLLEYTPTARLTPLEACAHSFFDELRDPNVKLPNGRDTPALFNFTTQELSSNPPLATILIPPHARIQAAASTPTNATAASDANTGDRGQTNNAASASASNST

[13] = biological target: cAMP-dependent protein kinase catalytic subunit alpha (Homo sapiens, UniProt P17612); format: functional
[14] = biological target: Homeodomain-interacting protein kinase 2 (Homo sapiens, UniProt Q9H2X6); format: functional;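 note: measured within a kinome-wide kinase profiling panel, HIPK2 being one panel member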
Chain of Homeodomain-interacting protein kinase 2 (Q9H2X6 whole entry): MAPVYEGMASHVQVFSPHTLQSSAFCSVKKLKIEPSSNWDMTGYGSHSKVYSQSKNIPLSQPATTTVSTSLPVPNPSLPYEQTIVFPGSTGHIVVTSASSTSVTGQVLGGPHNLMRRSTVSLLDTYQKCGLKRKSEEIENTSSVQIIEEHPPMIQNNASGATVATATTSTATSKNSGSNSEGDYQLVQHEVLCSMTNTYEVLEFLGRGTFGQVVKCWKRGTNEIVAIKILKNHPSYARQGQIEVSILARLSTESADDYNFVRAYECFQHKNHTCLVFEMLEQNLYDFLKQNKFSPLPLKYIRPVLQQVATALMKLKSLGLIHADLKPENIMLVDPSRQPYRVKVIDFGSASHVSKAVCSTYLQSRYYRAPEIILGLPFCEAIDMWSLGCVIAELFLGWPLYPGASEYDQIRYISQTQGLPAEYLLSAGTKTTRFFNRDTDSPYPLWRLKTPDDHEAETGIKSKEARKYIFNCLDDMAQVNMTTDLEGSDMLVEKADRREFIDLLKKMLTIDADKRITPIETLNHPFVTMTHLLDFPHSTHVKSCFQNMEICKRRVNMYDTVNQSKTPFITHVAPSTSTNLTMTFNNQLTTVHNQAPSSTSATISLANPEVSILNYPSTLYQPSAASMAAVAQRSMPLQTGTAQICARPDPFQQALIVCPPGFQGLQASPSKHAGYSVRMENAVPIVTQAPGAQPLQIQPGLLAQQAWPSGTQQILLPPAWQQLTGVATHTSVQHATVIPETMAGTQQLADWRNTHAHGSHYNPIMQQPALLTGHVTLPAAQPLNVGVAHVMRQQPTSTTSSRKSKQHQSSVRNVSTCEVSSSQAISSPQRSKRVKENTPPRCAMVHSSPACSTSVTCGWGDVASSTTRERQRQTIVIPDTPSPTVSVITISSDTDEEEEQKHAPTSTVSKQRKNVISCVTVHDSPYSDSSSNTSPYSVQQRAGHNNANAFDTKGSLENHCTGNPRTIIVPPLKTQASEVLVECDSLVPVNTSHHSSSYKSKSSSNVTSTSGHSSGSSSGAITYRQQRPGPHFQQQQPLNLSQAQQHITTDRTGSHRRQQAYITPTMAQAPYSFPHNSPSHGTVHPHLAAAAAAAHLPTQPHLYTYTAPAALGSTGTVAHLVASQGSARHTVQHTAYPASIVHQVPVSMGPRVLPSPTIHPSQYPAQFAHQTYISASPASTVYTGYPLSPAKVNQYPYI

[15] = biological target: Dual specificity protein kinase CLK4 (Homo sapiens, UniProt Q9HAZ1); format: functional
Chain of Dual specificity protein kinase CLK4 (Q9HAZ1 whole entry): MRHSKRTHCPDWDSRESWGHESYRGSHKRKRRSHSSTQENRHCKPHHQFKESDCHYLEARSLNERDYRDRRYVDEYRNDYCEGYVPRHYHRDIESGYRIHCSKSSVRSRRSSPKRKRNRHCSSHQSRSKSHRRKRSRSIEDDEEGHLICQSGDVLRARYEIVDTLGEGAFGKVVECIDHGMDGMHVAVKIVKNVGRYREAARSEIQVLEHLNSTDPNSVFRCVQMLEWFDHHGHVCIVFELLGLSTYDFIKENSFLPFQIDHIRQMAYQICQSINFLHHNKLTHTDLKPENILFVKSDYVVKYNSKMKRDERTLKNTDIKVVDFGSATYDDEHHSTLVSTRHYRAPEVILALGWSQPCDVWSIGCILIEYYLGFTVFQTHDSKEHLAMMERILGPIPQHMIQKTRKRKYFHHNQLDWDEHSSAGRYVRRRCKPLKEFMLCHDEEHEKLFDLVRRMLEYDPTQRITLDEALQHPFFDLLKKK

[16] = biological target: Mitogen-activated protein kinase kinase kinase kinase 4 (Homo sapiens, UniProt O95819); format: functional
[17] = biological target: MAP kinase-interacting serine/threonine-protein kinase 2 (Homo sapiens, UniProt Q9HBH9); format: functional
Chain of MAP kinase-interacting serine/threonine-protein kinase 2 (Q9HBH9 whole entry): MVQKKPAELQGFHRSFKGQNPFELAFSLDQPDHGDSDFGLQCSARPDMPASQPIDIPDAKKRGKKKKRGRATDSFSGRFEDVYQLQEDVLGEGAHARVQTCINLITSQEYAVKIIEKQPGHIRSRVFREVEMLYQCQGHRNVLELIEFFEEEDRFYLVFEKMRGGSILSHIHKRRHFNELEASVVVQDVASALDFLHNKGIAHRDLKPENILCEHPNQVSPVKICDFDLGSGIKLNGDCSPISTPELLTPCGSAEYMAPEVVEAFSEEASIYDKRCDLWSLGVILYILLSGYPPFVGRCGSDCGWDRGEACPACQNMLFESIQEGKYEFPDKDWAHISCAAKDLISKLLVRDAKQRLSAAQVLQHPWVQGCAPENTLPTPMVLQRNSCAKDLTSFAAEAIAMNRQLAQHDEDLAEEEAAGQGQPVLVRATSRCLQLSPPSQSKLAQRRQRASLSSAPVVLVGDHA

[18] = biological target: Cell division cycle 7-related protein kinase (Homo sapiens, UniProt O00311); format: functional;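 note: value obtained from a kinome-wide kinase panel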
Chain of Cell division cycle 7-related protein kinase (O00311 whole entry): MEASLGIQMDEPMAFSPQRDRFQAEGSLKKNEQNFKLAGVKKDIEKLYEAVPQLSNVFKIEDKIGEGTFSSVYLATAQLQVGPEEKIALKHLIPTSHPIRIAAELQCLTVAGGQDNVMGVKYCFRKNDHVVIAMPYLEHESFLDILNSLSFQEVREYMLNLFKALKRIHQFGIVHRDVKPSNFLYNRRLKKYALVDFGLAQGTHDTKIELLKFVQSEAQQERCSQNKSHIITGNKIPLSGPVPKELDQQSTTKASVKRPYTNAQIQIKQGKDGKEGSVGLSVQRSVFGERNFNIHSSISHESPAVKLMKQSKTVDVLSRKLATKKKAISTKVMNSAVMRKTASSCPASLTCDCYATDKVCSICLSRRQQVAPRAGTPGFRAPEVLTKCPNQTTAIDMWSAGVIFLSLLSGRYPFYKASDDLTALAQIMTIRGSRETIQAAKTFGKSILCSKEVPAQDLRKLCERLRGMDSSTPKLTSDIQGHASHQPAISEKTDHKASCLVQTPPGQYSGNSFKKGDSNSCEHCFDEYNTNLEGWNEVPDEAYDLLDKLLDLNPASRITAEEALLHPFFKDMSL

[19] = biological target: T4, Apoptotic protease-activating factor 1 (Homo sapiens, UniProt O14727); assay: SAR analysis of small molecule Activators of Apaf-1 in a Fluorescent assay.; format: functional; conditions: read-out: EC50_Mean
T4 sequence (O14727 whole entry): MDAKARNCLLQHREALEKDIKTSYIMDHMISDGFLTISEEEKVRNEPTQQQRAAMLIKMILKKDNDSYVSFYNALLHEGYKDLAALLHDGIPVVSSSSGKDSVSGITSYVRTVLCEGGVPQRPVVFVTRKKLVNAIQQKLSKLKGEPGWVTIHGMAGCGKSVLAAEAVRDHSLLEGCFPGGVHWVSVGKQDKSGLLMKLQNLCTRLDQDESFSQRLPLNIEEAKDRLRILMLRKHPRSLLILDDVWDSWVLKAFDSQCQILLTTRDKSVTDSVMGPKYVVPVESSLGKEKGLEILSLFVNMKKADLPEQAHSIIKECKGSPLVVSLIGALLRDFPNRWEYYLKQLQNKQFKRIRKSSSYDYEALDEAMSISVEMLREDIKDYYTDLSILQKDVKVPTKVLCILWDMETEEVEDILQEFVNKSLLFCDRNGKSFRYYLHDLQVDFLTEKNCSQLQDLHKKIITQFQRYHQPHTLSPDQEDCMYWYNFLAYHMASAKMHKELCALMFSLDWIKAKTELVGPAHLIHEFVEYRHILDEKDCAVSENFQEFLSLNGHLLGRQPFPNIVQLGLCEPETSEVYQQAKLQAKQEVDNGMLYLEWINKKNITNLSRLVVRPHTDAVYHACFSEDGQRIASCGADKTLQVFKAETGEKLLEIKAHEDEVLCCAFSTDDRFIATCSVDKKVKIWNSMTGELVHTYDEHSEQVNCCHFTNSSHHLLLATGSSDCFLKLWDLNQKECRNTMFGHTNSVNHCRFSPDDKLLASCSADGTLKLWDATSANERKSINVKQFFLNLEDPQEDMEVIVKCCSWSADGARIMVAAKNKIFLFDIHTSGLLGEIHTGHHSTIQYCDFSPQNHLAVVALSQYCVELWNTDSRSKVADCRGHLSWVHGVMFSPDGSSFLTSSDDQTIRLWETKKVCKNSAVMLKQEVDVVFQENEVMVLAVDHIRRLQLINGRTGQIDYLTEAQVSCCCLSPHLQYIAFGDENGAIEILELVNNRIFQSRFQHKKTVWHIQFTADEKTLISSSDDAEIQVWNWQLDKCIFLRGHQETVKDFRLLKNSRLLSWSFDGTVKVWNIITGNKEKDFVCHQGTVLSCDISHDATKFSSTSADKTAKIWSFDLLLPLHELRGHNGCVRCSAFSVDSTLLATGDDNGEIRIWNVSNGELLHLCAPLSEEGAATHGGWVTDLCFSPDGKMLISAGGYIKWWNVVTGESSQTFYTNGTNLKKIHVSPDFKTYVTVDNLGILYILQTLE

[20] = biological target: T5, Insulin-degrading enzyme (Homo sapiens, UniProt P14735); assay: recombinant IDE activation, cell-free – biochemical, fluorescence polarization, counter-screen for IDE activator project, dose response (AID 588681)
T5 sequence (P14735 whole entry): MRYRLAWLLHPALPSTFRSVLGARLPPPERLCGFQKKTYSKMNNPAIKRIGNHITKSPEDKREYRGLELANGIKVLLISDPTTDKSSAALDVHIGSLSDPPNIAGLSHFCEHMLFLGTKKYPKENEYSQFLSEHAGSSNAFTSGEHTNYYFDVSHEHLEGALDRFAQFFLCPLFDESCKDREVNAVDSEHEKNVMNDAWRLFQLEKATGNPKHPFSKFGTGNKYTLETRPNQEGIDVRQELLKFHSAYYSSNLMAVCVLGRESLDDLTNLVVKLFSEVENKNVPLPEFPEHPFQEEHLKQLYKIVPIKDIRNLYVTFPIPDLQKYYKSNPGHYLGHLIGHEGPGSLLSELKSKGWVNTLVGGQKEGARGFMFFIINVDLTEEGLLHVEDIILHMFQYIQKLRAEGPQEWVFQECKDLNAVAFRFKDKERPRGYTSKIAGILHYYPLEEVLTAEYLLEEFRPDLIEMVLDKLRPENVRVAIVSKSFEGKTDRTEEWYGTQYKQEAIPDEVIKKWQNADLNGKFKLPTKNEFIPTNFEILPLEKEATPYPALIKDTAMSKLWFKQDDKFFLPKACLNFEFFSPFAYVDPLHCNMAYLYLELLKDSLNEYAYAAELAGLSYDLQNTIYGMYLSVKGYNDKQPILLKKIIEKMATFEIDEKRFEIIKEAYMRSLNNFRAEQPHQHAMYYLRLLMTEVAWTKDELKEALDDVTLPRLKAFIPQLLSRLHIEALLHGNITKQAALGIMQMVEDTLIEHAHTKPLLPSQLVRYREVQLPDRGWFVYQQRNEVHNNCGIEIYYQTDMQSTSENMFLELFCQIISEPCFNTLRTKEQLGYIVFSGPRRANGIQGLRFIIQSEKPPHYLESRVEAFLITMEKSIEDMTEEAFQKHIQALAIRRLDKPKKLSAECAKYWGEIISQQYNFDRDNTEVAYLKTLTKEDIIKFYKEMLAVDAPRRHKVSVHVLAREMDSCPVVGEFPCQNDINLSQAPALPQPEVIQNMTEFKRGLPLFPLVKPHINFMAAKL

[21] = system: HEK293; assay: membrane integrity loss in HEK cells – cell-based, fluorescence, cytotoxicity control for IDE activator project, dose response (AID 588440); format: functional; conditions: Homo sapiens;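 note: cytotoxicity by LDH release measuring loss of membrane integrity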
[22] = biological target: T4, Apoptotic protease-activating factor 1; format: functional
[23] = biological target: T5, Insulin-degrading enzyme; assay: cellular IDE activation of Abeta substrate cleavage – fluorescence polarization, HEK cells, dose response (AID 588439); format: functional, cell-based
[24] = system: HEK293; assay: optical interference in Abeta FP readout, dose response, artefact control for IDE activator project, biochemical, fluorescence polarization (AID 588442); format: functional, cell-based; conditions: Homo sapiens
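Throughout, for EC50 Mean: caspase-3 cleavage of fluorogenic Rh110 DEVD substrate downstream of apoptosome activation.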

Chain of 26S proteasome non-ATPase regulatory subunit 14 (O00487 whole entry, the tested form may be a part): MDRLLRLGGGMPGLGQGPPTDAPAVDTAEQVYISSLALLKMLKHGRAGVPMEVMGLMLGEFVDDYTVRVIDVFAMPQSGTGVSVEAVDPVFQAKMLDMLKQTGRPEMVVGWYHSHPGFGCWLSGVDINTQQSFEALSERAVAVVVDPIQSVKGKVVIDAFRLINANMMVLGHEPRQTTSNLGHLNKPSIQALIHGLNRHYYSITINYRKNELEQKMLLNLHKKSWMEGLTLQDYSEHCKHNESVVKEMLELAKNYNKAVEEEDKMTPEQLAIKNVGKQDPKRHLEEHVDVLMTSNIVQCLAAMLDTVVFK

With `CCN(CC(=O)Nc1c(F)cccc1F)C(=O)CCc1nc2sc3c(c2c(=O)[nH]1)CCCC3` the IC50 [1] was 19.9 µM (active), the IC50 [2] was 4.4 µM (active) and the IC50 [3] was > 100 µM (inactive). For the same compound, the IC50 [4] was 85.3 µM (active).
With `Cc1cc(NS(=O)(=O)c2ccc(NC(=O)c3ccc(Cl)cc3Cl)cc2)no1` the IC50 [5] was 4.47 µM (active) and the IC50 [6] was 5.81 µM (active).
For `COc1cc2c(cc1NC(=O)COC(=O)CNS(=O)(=O)c1ccc(C)cc1)oc1ccccc12`, the IC50 [7] was > 64.6 µM (inactive) and the IC50 [8] was > 64.6 µM (inactive).
With `O=C(On1c(-c2ccccc2)nc2ccccc2c1=O)c1ccco1` the IC50 [5] was 8.91 µM (active), the IC50 [6] was 4.57 µM (active) and the EC50 [9] was > 50 µM (active).
In the case of `Nc1n[nH]c2ccc(-c3cc(Cc4ccccc4)no3)cc12`, the Ki [10] is reported as > 10 µM (inactive), the Ki [11] is reported as 6.31 µM (active) and the Ki [12] is reported as 0.158 µM (active). For the same compound, the Ki [13] was 0.316 µM (active), the Ki [14] was 1.58 µM (active) and the Ki [15] was 0.01 µM (active). The Ki [16] was 0.501 µM (active), the Ki [17] was 1 µM (active) and the Ki [18] was 0.0316 µM (active).
For `Cc1ccc(S(=O)(=O)NCC(=O)OCc2nnc(-c3ccccc3)o2)cc1`, the IC50 [7] was > 64.6 µM (inactive) and the IC50 [8] was > 64.6 µM (inactive).
For `CCOc1ccc(C(=O)CC(C(=O)O)c2cn(C)c3ccccc23)cc1` (stereo not drawn), the EC50 [19] was > 100 µM (inactive).
For `CCCCNc1c(-c2ccc(SC(C)CC)cc2)nc2cnccn12` (stereo not drawn), the EC50 [20] was > 54.7 µM (inactive), the IC50 [21] was 27.4 µM (inactive) and the IC50 [22] was 63.1 µM (active). For the same compound, the EC50 [23] was > 54.7 µM (inactive) and the EC50 [24] was > 55.9 µM (inactive).
